Reference: patent US6773702B2, “Use of combretastatin A4 and its prodrugs as an immune enhancing therapy” (OXiGENE, Inc., priority 2000, dated 2004)

Tested on: BN7005-H1D2 colon cancer cells
Assay: Tumor growth with IL-18/IFN-γ vaccination plus CA4P and/or L-NAME (FIG. 6)
Type: in vivo, rat
Description: FIG. 6 illustrates enhancement of the therapeutic effect of vaccination with IL-18/IFN-γ producing tumor transfectant […] cells by concurrent treatment with low dose combretastatin-A4 prodrug and/or L-NAME. Mean tumor volume±SEM is indicated. Significance of differences compared to the PBS control was evaluated by the Student's t test.
Four groups of 6 rats each were inoculated intrahepatically with 1×10^5 wild type colon cancer cells (BN7005-H1D2) on day 0. Drug treatment was initiated on day 7, when the tumor was macroscopically visible as a small nodule, and was repeated 5 days a week. CA4-P was administered i.p. at a dose of 5 mg/kg and L-NAME by gavage at a dose of 48 mg/rat. Vaccination was given twice i.p. on day 10.and 17 with 2×10^6 tumor cells producing IL-18 and IFN-γ, respectively. No drug treatment was given on the day of vaccination and the day after. On day 28 all animals were laparotomized and tumor diameters measured (the longest diameter (a) and the one perpendicular to the first (b) and tumor volume calculated according to the formula 0.4×a×b×b.
Referring to FIG. 6, wild-type (BN7005-H1D2) colon cancer cells were inoculated intrahepatically and combretastatin A4 prodrug treatment began daily on day 7 when the tumors were macroscopically visible. L-NAME, a well known NO inhibitor and effective antitumor agent, was also administered daily. On day 10 and 17 vaccination occurred using BN7005-H1D2 cells transfected with IL-18/IFN-gamma. […] One likely explanation was that both L-NAME and Combretastatin A4 were doing the same thing; i.e. inhibiting the production of proinflammatory cytokines that cause immune suppression.

## COc1ccc(/C=C\c2cc(OC)c(OC)c(OC)c2)cc1OP(=O)([O-])[O-].[Na+].[Na+] [CA4P, CA4 phosphate disodium salt]
CA4-P 5 mg/kg + L-NAME 48 mg/rat + vaccination
  Enhancement by combining L-NAME with combretastatin A4 prodrug: only a small enhancement
CA4P 5 mg/kg i.p. + vaccination with IL-18/IFN-γ producing tumor cells, day 28
  Tumor growth compared to the PBS group: inhibited the tumor growth significantly
